Source: publication PMC9570017, “Unorthodox PCNA Binding by Chromatin Assembly Factor 1” (International Journal of Molecular Sciences, 2022)
pKd: −log10 of the molar value.

Tests used:
human PCNA = molecular target: T1, human PCNA (Homo sapiens, UniProt P12004); experiment: Isothermal titration calorimetry (ITC), PIP peptide titrated into wild-type PCNA; format: binding
T1 construct: His6 (C); made in house; host or cells: E. coli Codon Plus BL21(DE3) pLysS
Text: The wild-type and R426D peptides were expressed as GST fusions in E. coli, purified to homogeneity (see Materials and Methods) and used in isothermal titration calorimetry (ITC) assays with human PCNA purified from E. coli.
Recombinant PCNA, PCNA-Y250I, and the PIP peptides (wild-type, R426D) were expressed and purified as described in the Supplementary Materials section—“Expression and purification of recombinant proteins”. The proteins were dialyzed against three 4-litre changes of ITC buffer containing 10 mM sodium phosphate, pH 7.0, and 10 mM NaCl at 4 °C overnight. The concentrations of PCNA and PIP peptides were determined by measuring tyrosine absorption at A280nm. ITC titrations of peptides into PCNA were performed at 23 °C in the ITC buffer (10 mM sodium phosphate, pH 7.0, 10 mM NaCl) using a MicroCal VP-ITC system. The concentrations of injected wild-type and mutant PIP in the syringe varied from 200 to 500 μM, whereas PCNA in the ITC sample cell varied depending on the experiment from 20 to 50 μM PCNA monomer. The protein and peptide samples were degassed before the ITC run. Data analysis was performed using the MicroCal Origin 7.0 software (OriginLab Corporation, Northampton, MA, USA) and all experiments fit the single binding site model.
Supplementary Materials-Expression and purification of recombinant proteins
S1. Expression and purification of GST-PIP fusion proteins in Escherichia coli Wild-type p150 PIP and R426D peptides were constructed as GST-fusion proteins with a tyrosine at the C-terminus of the peptide. The C-terminal tyrosine was added to aid in peptide detection during the purification by measuring the absorbance at 280 nm. The DNA fragments encoding the GST fusion proteins were inserted into a pGEX-TEV vector, which is essentially a modified pGEX-2T vector where the thrombin cleavage site was replaced with a TEV cleavage site. The pGEX-TEV plasmid was digested with BamHI and EcoRI and ligated to DNA fragments encoding either the p150 PIP wild-type and R426D. The plasmids pGEX-TEV-PIP wild type and pGEX-TEV-PIP R426D were con-firmed by DNA sequencing and then expressed in Escherichia coli host strain TOPP2 (Strat-agene) with 100 µg/ml ampicillin to saturation at 37°C. The next day, the saturated cells were diluted to 0.05 OD measured at A600 nm and the cells were grown at 37°C until the cells reach the mid-exponential phase of 0.6-0.8 at OD A600 nm. The cells were then in-duced with 1 mM isopropyl-D-thiogalactopyranoside (IPTG) for 4 h. Eight litres of cell culture were grown each for the wild-type and R426D mutant. The cells were then har-vested by centrifugation in an Avanti J-26XP high-performance centrifuge from Beckman Coulter with a fixed angle rotor (JLA-8.1000) at 9000 x g for 30 min at 4°C. The pellet from 1 litre cells equivalent was lysed in 10 ml of lysis buffer containing 20 mM Tris pH 7.5, 1 M NaCl, 0.2 mM EDTA, 1 mM DTT, 50 µg/ml lysozyme, 1 mM AEBSF and one tablet of cOmplete™ Mini EDTA-free Protease Inhibitor Cocktail Tablets (Roche). The cell pellet was sonicated in the lysis buffer on ice, at power output level 4 with 10 seconds pulse on and 30 seconds off at 6 watts using a Misonix 3000 Ultrasonic cell disruptor and wider probe. The lysate was clarified by centrifugation for 30 min in an Avanti J-26XP with a fixed angle rotor 25.50 at 30966 x g at 4°C. The clarified supernatant was incubated on a nutator for 6 h at 4°C with 10 ml of glutathione-Sepharose (GSH) resin (Amersham) pre-washed and equilibrated with lysis buffer. After incubation the GSH resin was pelleted, the unbound supernatant was removed, and the resin was washed thrice with lysis buffer and twice with Tobacco Etch Virus (TEV) protease buffer (20 mM sodium phosphate pH 6.5, 50 mM NaCl, 2 mM DTT). The peptide was cleaved from the GSH resin by incubating in the presence of TEV protease overnight at 4°C. The next day, the supernatant was har-vested by centrifugation, and the GSH resin was washed twice with 20 mM sodium phos- […]

PCNA-Y250I = experiment: Isothermal titration calorimetry (ITC), wild-type PIP titrated into PCNA-Y250I; format: binding, human; settings: 23 °C, 10 mM sodium phosphate, pH 7.0, 10 mM NaCl
Procedure: Recombinant PCNA, PCNA-Y250I, and the PIP peptides (wild-type, R426D) were expressed and purified as described in the Supplementary Materials section—“Expression and purification of recombinant proteins”. The proteins were dialyzed against three 4-litre changes of ITC buffer containing 10 mM sodium phosphate, pH 7.0, and 10 mM NaCl at 4 °C overnight. The concentrations of PCNA and PIP peptides were determined by measuring tyrosine absorption at A280nm. ITC titrations of peptides into PCNA were performed at 23 °C in the ITC buffer (10 mM sodium phosphate, pH 7.0, 10 mM NaCl) using a MicroCal VP-ITC system. The concentrations of injected wild-type and mutant PIP in the syringe varied from 200 to 500 μM, whereas PCNA in the ITC sample cell varied depending on the experiment from 20 to 50 μM PCNA monomer. The protein and peptide samples were degassed before the ITC run. Data analysis was performed using the MicroCal Origin 7.0 software (OriginLab Corporation, Northampton, MA, USA) and all experiments fit the single binding site model. […]
S1. […] The C-terminal tyrosine was added to aid in peptide detection during the purification by measuring the absorbance at 280 nm. […] The next day, the saturated cells were diluted to 0.05 OD measured at A600 nm and the cells were grown at 37°C until the cells reach the mid-exponential phase of 0.6-0.8 at OD A600 nm. […]

[1] = Size exclusion chromatography of PCNA-Y250I; format: physicochemical
Procedure: S3. Expression and purification of wild-type and mutant PCNA proteins in Escherichia […]
PCNA wild-type and mutants were expressed and purified as previously reported. In short, wild-type or mutant plasmids in pET23-C-His6-PCNA vectors were trans-formed and expressed in Codon Plus BL21(DE3) pLysS E. coli (Stratagene) cells. Single colonies were inoculated and grown overnight in the Luria-Bertani medium containing 100 µg/mL ampicillin to saturation at 37°C. The next day the cells were diluted and grown to mid-exponential phase (0.6-0.8) at OD600 nm, and the expression was induced with 1 mM isopropyl-β-D-thiogalactopyranoside (IPTG) for 4 h. PCNA mutants were transformed and expressed in a similar way.
Cells were spun in an Avanti J-26XP high performance centrifuge from Beckman Coul-ter with a fixed angle rotor (JLA-8.1000) at 9000 x g for 30 min at 4°C and the pellets from 1 litre of cell culture were resuspended in 50 mL of lysis buffer containing 50 mM sodium phosphate pH 8.0, 150 mM NaCl, 10% glycerol, 20 mM imidazole, 0.02% nonidet P-40, 2 mM DTT. […]
The eluate was subsequently purified with a Superdex™ 200 gel filtration column (GE Healthcare) in gel filtration buffer 20 mM Tris pH 7.5, 150 mM NaCl, 1 mM DTT. The fractions corresponding to PCNA homotrimer were pooled, concentrated with an amicon concentrator with 3 kDa MWCO, quantified using absorbance at A280 nm, and stored at - […]

[2] = ITC at 296 K, 10 mM Na-phosphate (pH 7.0), 10 mM NaCl

T1 sequence (P12004 whole entry): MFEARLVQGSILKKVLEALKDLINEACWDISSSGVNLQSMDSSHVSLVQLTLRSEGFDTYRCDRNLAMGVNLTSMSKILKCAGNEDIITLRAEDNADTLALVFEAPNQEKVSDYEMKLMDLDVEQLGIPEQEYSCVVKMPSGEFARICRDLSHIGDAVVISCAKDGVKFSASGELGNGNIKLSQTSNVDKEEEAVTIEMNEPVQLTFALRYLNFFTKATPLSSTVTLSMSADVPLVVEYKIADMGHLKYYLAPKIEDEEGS

Row | Substance | N (stoichiometry of peptide binding per PCNA monomer) (human PCNA; [2]) | ΔG (human PCNA; [2]) | ΔH (human PCNA; [2]) | ΔS (human PCNA; [2]) | pKd (human PCNA; ITC at 296 K, 10 mM Na-phosphate (pH 7.0), 10 mM NaCl, one binding site per PCNA monomer, PIP 200 to 500 μM in syringe, PCNA 20 to 50 μM monomer) | stoichiometry (PIP per PCNA monomer) (human PCNA; ITC, 23 °C, 10 mM sodium phosphate, pH 7.0, 10 mM NaCl) | heat exchange / binding to PCNA-Y250I (PCNA-Y250I) | aggregation [1]
1 | KAEITRFF [CAF-1 PIP wild type, wild-type p150 PIP expressed as GST fusion with C-terminal tyrosine, TEV-cleaved and purified, used for ITC] | 0.83 | -6.25 kcal/mol | -1.868 kcal/mol | 14.8 cal K^−1 mol^−1 | 4.62 | 0.83 | no detectable heat exchange observed by ITC | –
2 | PCNA-Y250I: PCNA mutated at the tyrosine involved in the cation-π interaction with CAF-1 p150 Arg426 | – | – | – | – | – | – | – | no evidence of aggregation
